From patent publication US20230309565A1 (priority 2022, published 2023)
Converted amounts (≈) assume the structure as drawn.

Legend:
[1] = tested on: Liberibacter crescens BT-1; assay: microbe, parasite or virus in culture; format: cell-based; settings: for inhibition of growth of L. crescens BT1: BM7 medium, 28° C.
[2] = tested on: Candidatus Liberibacter asiaticus (CLas); format: in vivo, Duncan grapefruit
CsPR1 = format: in vivo, citrus; settings: foliar spray 10 ppm and 20 ppm; midribs at 0d, 2d, 2w; relative to CsUbi
CsPR2 = format: in vivo, citrus; settings: foliar spray 10 ppm and 20 ppm; midribs at 0d, 2d, 2w; relative to CsUbi
[3] = format: physicochemical; settings: room temperature; 40-h culture of 0617-T307 in YME media
[4] = methanol and chloroform

Structure (SMILES) | inhibition of growth of L. crescens ([1]; 1 mg/L) | inhibition of growth of L. crescens ([1]; 2.5 mg/L, 16 days) | inhibition of growth of L. crescens BT1 ([1]; 10 mg/L) | inhibition of growth of L. crescens BT1 ([1]; 20 mg/L) | inhibition of growth of L. crescens BT1 ([1]; 40 mg/L) | MIC ([1]; Liberibacter crescens, BT1, read-out: minimal inhibitory concentration (MIC)) | suppression of CLas ([2]; 10 mg/L sprayed on leaves of citrus Huanglongbing positive trees) | CLas titer in citrus leaves ([2]; RAA 10 mg/L foliar spray, HLB-positive Duncan grapefruit, untreated control 7.4×10^5) | expression of CsPR1 (CsPR1) | expression of CsPR2 (CsPR2) | present and stable in the culture [3] | solubility [4]
CSC1=C(C)C(=O)C(=O)NC1=O [RejuAgro A] | partial inhibition of growth | inhibition of growth | inhibition of growth | inhibition of growth | inhibition of growth | 2.5 µg/mL (≈ 13.5 µM) | effectively suppress | 2.4×10^5 genome equivalent/g tissue DNA | triggered the expressions | triggered the expressions | at least 4 weeks | can be dissolved in methanol and chloroform
[H]/N=C(/N)N[C@H]1[C@H](O)[C@@H](O)[C@H](O[C@@H]2O[C@@H](C)[C@](O)(C=O)[C@H]2O[C@@H]2O[C@@H](CO)[C@H](O)[C@@H](O)[C@@H]2NC)[C@@H](N/C(N)=N\[H])[C@@H]1O [streptomycin, reference compound] | – | comparable | – | – | – | – | – | – | – | – | – | –
